Laboratory results from US20120053123A1, “NATRIURETIC POLYPEPTIDES HAVING MUTATIONS WITHIN THEIR DISULFIDE RINGS” (priority 2009, published 2012).

What was measured:
[1] = tested on: vascular smooth muscle cells; test: Proliferation of vascular smooth muscle cells in culture (BrdU); format: cell-based; conditions: 10^-5 M to 10^-8 M; for ABC-NP and ABC-NP1 all concentrations about the same effect, FIG. 21
Description: FIG. 21 is a graph plotting levels of proliferation of vascular smooth muscle cells after treatment with 10^−5 M, 10^−6 M, 10^−7 M, or 10^−8 M ANP, BNP, CNP, ABC-NP, or ABC-NP1, measured by assessing bromodeoxyuridine (BrdU) levels.

[2] = after administration to a mammal; cited from earlier work
[3] = tested on: human cardiac fibroblasts (HCF); test: cGMP generation in cultured human cardiac fibroblasts (HCF); format: cell-based; conditions: FIG. 8, p<0.05
Description: (§1) Variant NPs having conservative and/or non-conservative substitutions (e.g., with respect to any of SEQ ID NOS:1 to 51), as well as fragments of any of SEQ ID NOS:1 to 51, fragments of variants of any of SEQ ID NOS:1 to 51, and polypeptides comprising any of SEQ ID NOS:1 to 51, variants or fragments of any of SEQ ID NOS:1 to 51, or fragments of variants of any of SEQ ID NOS:1 to 51, can be screened for biological activity using any of a number of assays, including those described herein. For example, the activity of a NP as described herein can be evaluated in vitro by testing its effect on cGMP production in cultured cells (e.g., cultured cardiac fibroblasts, aortic endothelial cells, or glomerular cells, as described in the Example herein). Cells can be exposed to a NP (e.g., 10^−9 to 10^−4 M NP), and samples can be assayed to evaluate the NP effects on cGMP generation. cGMP generation can be detected and measured using, for example, a competitive RIA cGMP kit (Perkin-Elmer, Boston, Mass.).
(§2) Cardiorenal and humoral actions of intravenous bolus administration of ABC-NP1 (n=5) and ABC-NP (n=5) at 25 microgram/Kg were evaluated in two separate groups of normal anesthetized dogs. The cGMP response of both peptides also was assessed in HAEC, HCF, and isolated canine glomeruli.

[4] = previously shown, cited from earlier work
normal anesthetized dogs = test: Cardiorenal and humoral actions of intravenous bolus in normal anesthetized dogs; format: in vivo, dog; conditions: i.v. bolus 25 microgram/Kg; for reduction in right atrial pressure (RAP) / reduction in pulmonary capillary wedge pressure (PCWP): ABC-NP1 compared with ABC-NP; for reduction in right atrial pressure (RAP): FIG. 6; for reduction in pulmonary capillary wedge pressure (PCWP): FIG. 7; for urine flow (UV), diuresis: n=5, FIG. 3; for urinary sodium excretion (UNaV), natriuresis: n=5, FIG. 4; for mean arterial blood pressure (MAP): n=5, FIG. 5
Description: as §2

[5] = tested on: dogs with rapid ventricular pacing-induced overt heart failure with cardiorenal dysfunction; test: Cardiorenal and humoral actions of intravenous infusions in dogs with pacing-induced overt heart failure; format: in vivo, dog; conditions: for RAP: all doses (2, 10 and 100 pmol/kg/minute), FIG. 13; for MAP: FIG. 12; for PCWP: FIG. 14; for urinary sodium excretion (UNaV) / urine flow (UV): increasing doses 2, 10, 100 pmol/kg/minute; for glomerular filtration rate (GFR): FIG. 17; for renal blood flow: FIG. 18
Description: The cardiorenal and humoral actions of intravenous infusions of ABC-NP and ABC-NP1 at 2, 10, and 100 pmol/kg/minute were examined in seven dogs with rapid ventricular pacing-induced overt heart failure with cardiorenal dysfunction (240 bpm for 10 days). As shown in the study protocol depicted in FIG. 11, baseline values for MAP, RAP, PCWP, UNaV, UV, GFR, renal blood flow, urinary cGMP excretion, plasma and cGMP were measured, and animals were then infused with 2 pmol/kg/minute ABC-NP or ABC-NP1 for a lead in period of 15 minutes followed by 30 minutes, then infusion with 10 pmol/kg/minute ABC-NP or ABC-NP1 for a lead in period of 15 minutes followed by 30 minutes, and finally infusion with 100 pmol/kg/minute ABC-NP or ABC-NP1 for a lead in period of 15 minutes followed by 30 minutes, and washout for 30 minutes. Pressure measurements were taken at the end of each NP infusion period, and blood and urine samples also were collected for analysis.

[6] = tested on: isolated canine glomeruli; test: cGMP generation in isolated canine glomeruli; format: cell-based; conditions: comparison between the two peptides, FIG. 10
Description: A NP as provided herein can function through one or more of the guanylyl cyclase receptors through which the native NPs function. For example, in some embodiments, a NP as provided herein can bind to and function through the NPR-A receptor through which ANP and BNP function. In some cases, a NP as provided herein can function through the NPR-B receptor through which CNP functions. Further, in some cases, a NP as provided herein can bind to and function through more than one guanylyl cyclase receptor, including NPR-A and NPR-B, for example. Methods for evaluating which receptor is involved in function of a particular NP are known in the art. For example, glomeruli, which contain both NPR-A and NPR-B, can be isolated (e.g., from a laboratory animal such as a dog) and incubated with a NP (e.g., a native, chimeric, or mutated NP), and cGMP levels can be measured. Glomeruli can be pretreated with antagonists of NPR-A or NPR-B to determine whether cGMP production stimulated by a NP through one or the other receptor can be attenuated.
as §2

[7] = tested on: human aortic endothelial cells (HAEC); test: cGMP generation in cultured human aortic endothelial cells (HAEC); format: cell-based; conditions: FIG. 9, p<0.05
Description: as §1, §2

[8] = HF dogs, highest dose (100 pmol/kg/minute), FIG. 19
[9] = HF dogs, highest dose (100 pmol/kg/minute), FIG. 20
[10] = HF dogs, i.v. infusion, highest dose (100 pmol/kg/minute)
[11] = HF dogs, two highest doses (10 and 100 pmol/kg/minute)

Compound: CC[C@H](C)[C@@H]1NC(=O)[C@H](CCCNC(=N)N)NC(=O)[C@H](CC(=O)O)NC(=O)[C@H](CCSC)NC(=O)[C@H](CCCNC(=N)N)NC(=O)CNC(=O)CNC(=O)[C@H](Cc2ccccc2)NC(=O)[C@@H](NC(=O)[C@H](CO)NC(=O)[C@H](CO)NC(=O)[C@H](CCCNC(=N)N)NC(=O)[C@H](CCCNC(=N)N)NC(=O)[C@H](CC(C)C)NC(=O)[C@@H](N)CO)CSSC[C@@H](C(=O)N[C@@H](CC(N)=O)C(=O)N[C@@H](CO)C(=O)N[C@@H](Cc2ccccc2)C(=O)N[C@@H](CCCNC(=N)N)C(=O)N[C@@H](Cc2ccc(O)cc2)C(=O)O)NC(=O)CNC(=O)[C@H](CC(C)C)NC(=O)CNC(=O)[C@H](CO)NC(=O)[C@H](CCC(N)=O)NC(=O)[C@H](C)NC(=O)CNC1=O [ANP, atrial natriuretic peptide]
- proliferation of vascular smooth muscle cells (BrdU levels) [1]: decreased as the concentration decreased

Compound: B-type natriuretic peptide [BNP]
- proliferation of vascular smooth muscle cells (BrdU levels) [1]: decreased as the concentration decreased

Compound: C-type natriuretic peptide [CNP]
- proliferation of vascular smooth muscle cells (BrdU levels) [1]: decreased as the concentration decreased
- half-life [2]: about a minute and a half

Compound: RMDRIGLSKGCFGLKLDRIGSMSGLGCKVLRRH [ABC-NP1]
- proliferation of vascular smooth muscle cells (BrdU levels) [1]: reduced proliferation
- cGMP generation [3]: significantly higher
- renal excretory actions ([4]; result of N- and C-terminal alterations): potent renal excretory actions
- cardiac actions ([4]; similar to CNP): cardiac unloading actions
- hypotensive effects ([4]; similar to CNP): mild hypotensive effects
- reduction in right atrial pressure (RAP) (normal anesthetized dogs): significantly greater
- reduction in pulmonary capillary wedge pressure (PCWP) (normal anesthetized dogs): significantly greater
- urine flow (UV), diuresis (normal anesthetized dogs): resulted in diuresis
- urinary sodium excretion (UNaV), natriuresis (normal anesthetized dogs): natriuresis
- mean arterial blood pressure (MAP) (normal anesthetized dogs): significant decrease
- effect on UNaV relative to ABC-NP ([5]; HF dogs, ABC-NP1 vs ABC-NP, FIG. 15): 5- to 6.5 fold
- effect on UV relative to ABC-NP ([5]; HF dogs, ABC-NP1 vs ABC-NP, FIG. 16): 1.5- to 2 fold
- urinary cGMP excretion [5, 8]: significantly increased
- plasma cGMP [5, 9]: significantly increased
- effect on urinary cGMP excretion relative to ABC-NP ([5]; HF dogs, highest dose, ABC-NP1 vs ABC-NP, FIG. 19): about a two-fold greater effect
- effect on plasma cGMP relative to ABC-NP ([5]; HF dogs, highest dose, ABC-NP1 vs ABC-NP, FIG. 20): about a two-fold greater effect
- RAP ([5]; HF dogs, i.v. infusion): significantly reduced
- MAP [5, 10]: significantly reduced
- PCWP [5, 10]: significantly reduced
- urinary sodium excretion (UNaV) ([5]; HF dogs, FIG. 15): increasing effects
- urine flow (UV) ([5]; HF dogs, FIG. 16): increasing effects
- glomerular filtration rate (GFR) [5, 11]: significant increases
- renal blood flow [5, 11]: significant increases
- cGMP generation [6]: similar
- cGMP generation [7]: significantly higher

Compound: RMDRIGLSKGCFGLKLDRIREASGLGCKVLRRH [ABC-NP, ANP residues 11-15, mutated CNP in which GSM15-17 were changed to REA, and six C-terminal amino acids of BNP]
- proliferation of vascular smooth muscle cells (BrdU levels) [1]: reduced proliferation
- cGMP generation [3]: minimal
- reduction in right atrial pressure (RAP) (normal anesthetized dogs): reduction
- reduction in pulmonary capillary wedge pressure (PCWP) (normal anesthetized dogs): reduction
- urine flow (UV), diuresis (normal anesthetized dogs): resulted in diuresis
- urinary sodium excretion (UNaV), natriuresis (normal anesthetized dogs): natriuresis
- mean arterial blood pressure (MAP) (normal anesthetized dogs): no change
- glomerular filtration rate (GFR) ([5]; HF dogs, 2, 10, 100 pmol/kg/minute, significant increase only at highest dose): significance was not achieved with ABC-NP until the highest dose was used
- renal blood flow ([5]; HF dogs, 2, 10 and 100 pmol/kg/minute): no effect
- urinary cGMP excretion [5, 8]: significantly increased
- plasma cGMP [5, 9]: significantly increased
- MAP ([5]; HF dogs, i.v. infusion 2, 10 and 100 pmol/kg/minute): no effect
- RAP ([5]; HF dogs, i.v. infusion): increased
- PCWP ([5]; HF dogs, i.v. infusion, higher doses (10 and 100 pmol/kg/minute)): did not affect
- PCWP ([5]; HF dogs, i.v. infusion, lowest dose (2 pmol/kg/minute), vs baseline): reduced PCWP as compared to baseline
- urinary sodium excretion (UNaV) ([5]; HF dogs, FIG. 15): increasing effects
- urine flow (UV) ([5]; HF dogs, FIG. 16): increasing effects
- cGMP generation [6]: similar
- cGMP generation [7]: minimal
